Data from ChEMBL document CHEMBL5104219, “Pyrazolidine Carboxamide Analogs as Selective Agonists of the Cannabinoid 2 Receptor” (ACS Med Chem Lett, 2022).

How the values were obtained:
Format in all cases: functional, cell-based
[1] = molecular target: T1, Cannabinoid receptor 2 (Homo sapiens, UniProt P34972); assay: Agonist activity at human CB2 receptor expressed in CHO cells assessed as inhibition of accumulation of forskolin-stimulated cAMP level by measuring maximum activation incubated for 35 mins by chemiluminescence based assay relative to control; settings: filed as agonist
T1 sequence (P34972 whole entry): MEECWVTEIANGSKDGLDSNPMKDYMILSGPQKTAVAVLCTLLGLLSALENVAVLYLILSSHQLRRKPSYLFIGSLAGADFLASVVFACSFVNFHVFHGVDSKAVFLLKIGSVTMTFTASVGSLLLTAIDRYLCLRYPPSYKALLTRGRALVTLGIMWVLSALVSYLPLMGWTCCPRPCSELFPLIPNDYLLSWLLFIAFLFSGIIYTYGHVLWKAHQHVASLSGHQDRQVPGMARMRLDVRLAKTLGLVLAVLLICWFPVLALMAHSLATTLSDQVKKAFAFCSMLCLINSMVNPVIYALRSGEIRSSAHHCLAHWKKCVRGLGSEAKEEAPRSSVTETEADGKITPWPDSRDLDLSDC

[2] = molecular target: T1, Cannabinoid receptor 2; assay: Agonist activity at human CB2 receptor expressed in CHO cells assessed as inhibition of accumulation of forskolin-stimulated cAMP level incubated for 35 mins by chemiluminescence based assay
[3] = molecular target: T1, Cannabinoid receptor 2; assay: Agonist activity at human CB2 receptor expressed in PathHunter CHO-K1 CNR2 beta-arrestin cells assessed as beta-arrestin recruitment incubated for 3 hrs by plate reader analysis

Structure (SMILES) | Emax [1] [%] | EC50 [2] [nM] | EC50 [3] [nM]
Cc1nc(N2CCN(C)CC2)c2nc(-c3ccccc3Cl)n(C3CCOCC3)c2n1 | 52.6 |  | 
CC(C)(CO)c1cc(NC(=O)N2CCCN2c2ccc(C(F)(F)F)cc2)on1 | 99.7 | 42.7 | 167
CC(C)(C)c1cc(NC(=O)N2CCCN2c2ccc(C(F)(F)F)cc2)on1 | 114 |  | > 1000
